We go through 29 compounds from ChEMBL document CHEMBL2331386, “Design, synthesis and SAR of piperidyl-oxadiazoles as 11β-hydroxysteroid dehydrogenase 1 inhibitors” (Eur J Med Chem, 2013).

Series [1] can be described thus: (§1) Oral bioavailability in rat at 6 mg/kg. The conditions noted are these: in vivo. It counts as ADME, organism-based.
Series [2] can be described thus: Half life in rat at 6 mg/kg, po. The arrangement: dose 6 mg/kg, route oral. It counts as ADME, organism-based. The conditions noted are these: in vivo.
Series [3] in a line: (§2) AUC (0 to t) in rat at 6 mg/kg, po. It is filed as ADME, organism-based, Plasma. Further details: dose 6 mg/kg, route oral. The conditions noted are these: plasma.
Series [4] in a line: (§3) Clearance in rat at 3 mg/kg, iv. It counts as ADME, organism-based. The conditions noted are these: in vivo. Further details: dose 3 mg/kg, route intravenous.
A further series has as its target T1, CYP1A2 (Homo sapiens, UniProt P05177).
T1 sequence (P05177 whole entry): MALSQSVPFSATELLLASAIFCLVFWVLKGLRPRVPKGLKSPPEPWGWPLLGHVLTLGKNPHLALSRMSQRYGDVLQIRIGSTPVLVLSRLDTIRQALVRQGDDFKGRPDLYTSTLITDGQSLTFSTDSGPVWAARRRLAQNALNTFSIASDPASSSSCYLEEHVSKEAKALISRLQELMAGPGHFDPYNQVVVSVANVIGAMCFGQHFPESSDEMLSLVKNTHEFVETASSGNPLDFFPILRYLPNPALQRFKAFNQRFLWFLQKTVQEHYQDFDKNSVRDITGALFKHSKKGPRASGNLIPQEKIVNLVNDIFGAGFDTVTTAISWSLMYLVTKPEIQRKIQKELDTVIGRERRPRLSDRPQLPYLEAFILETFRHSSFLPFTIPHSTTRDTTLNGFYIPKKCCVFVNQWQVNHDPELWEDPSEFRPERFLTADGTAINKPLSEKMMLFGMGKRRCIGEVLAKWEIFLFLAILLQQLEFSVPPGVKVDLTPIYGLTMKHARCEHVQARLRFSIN
As to the kind of experiment: Inhibition of CYP1A2 in human microsomes using phenacetin as substrate at 10 uM after 5 mins. It counts as ADME, Microsome. The settings on record: probe phenacetin.

The target of the next series is CYP2D6 (Homo sapiens, UniProt P10635). The experiment in a line: Inhibition of CYP2D6 in human microsomes using dextrpmethorphan as substrate at 10 uM after 5 mins. It counts as ADME, Microsome. The settings on record: probe dextromethorphan (printed: dextrpmethorphan).
Another series deals with CYP3A4 (Homo sapiens, UniProt P08684). As to the kind of experiment: Inhibition of CYP3A4 in human microsomes using midazolam as substrate at 10 uM after 5 mins. It is filed as ADME, Microsome. The settings on record: probe midazolam.
Series [5] can be described thus: Intrinsic clearance in human liver microsomes at 1 uM preincubated for 5 mins measured per mg protein by LC/MS/MS analysis. The settings on record: read-out: CLH. It is filed as ADME, Microsome.
The target of series [6] is 11-beta-hydroxysteroid dehydrogenase 1 (Homo sapiens, UniProt P28845). The experiment in a line: Inhibition of human 11-beta HSD1 transfected in HEK293 cell microsomes assessed as decrease in [3H]cortisol generation using [3H]cortisone as substrate measured after 60 mins by scintillation proximity assay. Further details: species or system Microsome.
Series [7] relates to Rattus norvegicus. Described as §1. It counts as ADME, organism-based. The conditions noted are these: in vivo.
Series [8] deals with Rattus norvegicus. The series is described as §2. The arrangement: dose 6 mg/kg, route oral. The settings on record: in vivo. It counts as ADME, organism-based, Plasma.
The subject of series [9] is Rattus norvegicus. The description is as §3. It counts as ADME, organism-based. The arrangement: dose 3 mg/kg, route intravenous. The settings on record: in vivo.

pIC50: −log10 of the molar value.

Chain of CYP3A4 (P08684 whole entry): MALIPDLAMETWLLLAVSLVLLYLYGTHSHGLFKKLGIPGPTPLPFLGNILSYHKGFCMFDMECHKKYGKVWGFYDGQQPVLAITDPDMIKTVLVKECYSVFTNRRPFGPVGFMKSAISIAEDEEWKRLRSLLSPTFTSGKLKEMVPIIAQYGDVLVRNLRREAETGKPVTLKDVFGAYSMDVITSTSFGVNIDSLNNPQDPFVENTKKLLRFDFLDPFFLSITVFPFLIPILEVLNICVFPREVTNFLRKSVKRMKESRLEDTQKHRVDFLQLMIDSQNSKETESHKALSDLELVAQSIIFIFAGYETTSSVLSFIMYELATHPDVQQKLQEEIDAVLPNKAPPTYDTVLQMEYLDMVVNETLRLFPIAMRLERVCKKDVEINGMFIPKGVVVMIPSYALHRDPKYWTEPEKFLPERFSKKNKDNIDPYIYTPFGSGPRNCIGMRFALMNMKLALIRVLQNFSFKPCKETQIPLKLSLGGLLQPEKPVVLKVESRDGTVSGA
Chain of 11-beta-hydroxysteroid dehydrogenase 1 (P28845 whole entry): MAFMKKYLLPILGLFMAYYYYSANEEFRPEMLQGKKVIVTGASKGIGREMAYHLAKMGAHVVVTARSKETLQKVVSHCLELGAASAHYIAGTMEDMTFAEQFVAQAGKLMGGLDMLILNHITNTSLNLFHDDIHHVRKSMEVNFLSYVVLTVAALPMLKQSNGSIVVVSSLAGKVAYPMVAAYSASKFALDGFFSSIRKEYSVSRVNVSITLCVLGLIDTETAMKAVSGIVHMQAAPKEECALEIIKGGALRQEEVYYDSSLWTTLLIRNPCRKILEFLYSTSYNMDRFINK
Chain of CYP2D6 (P10635 whole entry): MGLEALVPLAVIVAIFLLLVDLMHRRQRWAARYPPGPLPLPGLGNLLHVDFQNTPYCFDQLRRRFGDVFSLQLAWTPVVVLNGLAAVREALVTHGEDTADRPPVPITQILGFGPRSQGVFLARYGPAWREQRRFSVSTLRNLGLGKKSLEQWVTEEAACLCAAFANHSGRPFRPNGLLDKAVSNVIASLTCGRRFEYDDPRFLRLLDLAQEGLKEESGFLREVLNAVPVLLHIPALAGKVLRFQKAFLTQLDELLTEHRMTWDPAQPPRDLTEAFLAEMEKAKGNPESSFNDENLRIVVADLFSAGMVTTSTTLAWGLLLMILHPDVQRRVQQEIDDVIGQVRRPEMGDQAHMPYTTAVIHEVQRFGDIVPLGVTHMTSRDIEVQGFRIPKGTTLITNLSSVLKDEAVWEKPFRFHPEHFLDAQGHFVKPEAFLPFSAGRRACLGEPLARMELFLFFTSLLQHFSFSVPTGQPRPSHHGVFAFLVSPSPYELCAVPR

Compound `Cc1c(Cl)cccc1S(=O)(=O)N1CCC[C@H](C(=O)NC2CCCCC2)C1` yielded a bioavailability in series [1] of 8%. This compound also gave a half-life in series [2] of 0.4 h. The same compound gave an AUC(0-t) in series [3] of 188 nM·h. Also, in series [4], the clearance was determined as 7.8 L/h/kg. Besides, the values for the inhibition at 5 min, 10 µM against CYP1A2, on CYP2D6 and at CYP3A4 were 16%, 34% and 73%, respectively. Also, the microsomal CLint at 1 µM in [5] is 209 µL/min/mg. For the same compound, in [6], the negative-log IC50 (pIC50) was 9.10. Consider `Cc1c(Cl)cccc1C(=O)N1CCC[C@H](c2nc(-c3ccc(Br)cc3)no2)C1`, for which the pIC50 in [6] was less than 6.00. In the case of `Cc1c(Cl)cccc1C(=O)N1CCC[C@H](c2nc(-c3cccc(Br)c3)no2)C1`, the pIC50 in [6] was 6.51. As to `Cc1c(Cl)cccc1C(=O)N1CCC[C@H](c2nc(-c3ccccc3Br)no2)C1`, in series [6], the pIC50 is 6.08. With `Cc1c(Cl)cccc1C(=O)N1CCC[C@H](c2nc(-c3ccccc3Cl)no2)C1`, the pIC50 in series [6] is 6.56. `Cc1c(Cl)cccc1C(=O)N1CCC[C@H](c2nc(-c3cccs3)no2)C1`: the negative logarithm of the IC50 (pIC50) in series [6] is less than 6.00. For `Cc1c(Cl)cccc1C(=O)N1CCC[C@H](c2nc(-c3ccc(F)cc3)no2)C1`, in series [6], the pIC50 was 6.02.

Turning to `Cc1c(Cl)cccc1C(=O)N1CCC[C@H](c2nc(C3CCCCC3)no2)C1`, the pIC50 in [6] was 6.21. Consider `Cc1c(Cl)cccc1C(=O)N1CCC[C@H](c2nc(C34CC5CC(CC(C5)C3)C4)no2)C1`, for which, in [6], the negative logarithm of the IC50 (pIC50) is less than 6.00. `CC1(C)C(C(=O)N2CCC[C@H](c3nc(-c4ccccc4)no3)C2)C1(C)C`: the negative logarithm of the IC50 (pIC50) in series [6] is 6.10. On the same count and under the same terms, the same measure for `O=C(C1CC1)N1CCC[C@H](c2nc(-c3ccccc3)no2)C1`: 7.04; for `O=C(C1CCC1)N1CCC[C@H](c2nc(-c3ccccc3)no2)C1`: 6.49.

`O=C(C1CCCCC1)N1CCC[C@H](c2nc(-c3ccccc3)no2)C1`: in the series on Rattus norvegicus [7], the F is 36%. In [2], this compound had a half-life of 1.3 h. This compound yielded an AUCt in the series on Rattus norvegicus [8] of 25.3 µM·min. The same compound had a CL in the series with Rattus norvegicus [9] of 1.44 L/h/kg. In addition, the inhibition at 5 min, 10 µM came out at 16% against CYP1A2, 12% against CYP2D6 and 7.7% at CYP3A4. Further, the microsomal CLint at 1 µM in series [5] amounted to 44 µL/min/mg. Moreover, the negative logarithm of the IC50 (pIC50) in series [6] was 7.15. On to `O=C(C1CCCCCC1)N1CCC[C@H](c2nc(-c3ccccc3)no2)C1`, for which the negative logarithm of the IC50 (pIC50) in series [6] was 5.83.

Consider `Cn1ccc2c(C(=O)N3CCC[C@H](c4nc(-c5ccccc5)no4)C3)cccc21`, for which, in [6], the pIC50 is 6.85. Turning to `Cn1cccc1C(=O)N1CCC[C@H](c2nc(-c3ccccc3)no2)C1`, the negative logarithm of the IC50 (pIC50) in [6] is 6.15. As for `O=C(c1ccco1)N1CCC[C@H](c2nc(-c3ccccc3)no2)C1`, the pIC50 in series [6] is 6.18.

Regarding `Cc1c(Br)cccc1C(=O)N1CCC[C@H](c2nc(-c3ccccc3)no2)C1`, the F with Rattus norvegicus [7] was 25%. In series [2], this compound showed a half-life of 2.1 h. Besides, in the series on Rattus norvegicus [8], the AUCt was determined as 34.1 µM·min. Besides, the CL in the series on Rattus norvegicus [9] came to 0.96 L/h/kg. Moreover, the inhibition at 5 min, 10 µM against CYP1A2 worked out at 0%; at CYP2D6, 0%; against CYP3A4, 22%. Also, in [5], the microsomal CLint at 1 µM is 63 µL/min/mg. In addition, the pIC50 in [6] is 8.48. Consider `Cc1cccc(C(=O)N2CCC[C@H](c3nc(-c4ccccc4)no3)C2)c1Cl`, for which, in series [6], the negative-log IC50 (pIC50) is 7.55.

Consider `O=C(c1ccc(Cl)cc1)N1CCC[C@H](c2nc(-c3ccccc3)no2)C1`, for which the pIC50 in series [6] was 6.56.

As to `O=C(c1cccc(Cl)c1)N1CCC[C@H](c2nc(-c3ccccc3)no2)C1`, the pIC50 in series [6] is 6.13. Take `O=C(c1ccccc1Cl)N1CCC[C@H](c2nc(-c3ccccc3)no2)C1`: in series [6], the pIC50 is 6.07. Still for that read-out and setting: then `Cc1ccccc1C(=O)N1CCC[C@H](c2nc(-c3ccccc3)no2)C1`, with 6.36; and `O=C(c1ccccc1)N1CCC[C@H](c2nc(-c3ccccc3)no2)C1`, with 5.62. For `Cc1c(Cl)cccc1C(=O)N1CCC[C@H](c2noc(-c3ccccc3)n2)C1`, in series [6], the negative logarithm of the IC50 (pIC50) was 6.97. Regarding `Cc1c(Cl)cccc1C(=O)N1CCC[C@H](c2nc(-c3ccccc3)no2)C1`, the negative logarithm of the IC50 (pIC50) in series [6] was 7.57. Take `Cc1c(Cl)cccc1C(=O)N1CCC[C@H](n2nnc(-c3ccccc3)n2)C1`: in series [6], the pIC50 is 6.23.

With `Cc1c(Cl)cccc1C(=O)N1CCC[C@H](c2nnc(-c3ccccc3)[nH]2)C1`, the pIC50 in series [6] is 6.02. Regarding `Cc1c(Cl)cccc1C(=O)N1CCC[C@H](c2nnc(-c3ccccc3)o2)C1`, the pIC50 in series [6] is 5.88.
